Like-named read-outs stand apart in the source and are kept apart here.

For this assay, the target named is T1, recombinant human G9a protein (Homo sapiens, UniProt Q96KQ7).
T1 construct: purchased BPS Bioscience Inc. #51001
T1 sequence (Q96KQ7 785-1210 limits assumed): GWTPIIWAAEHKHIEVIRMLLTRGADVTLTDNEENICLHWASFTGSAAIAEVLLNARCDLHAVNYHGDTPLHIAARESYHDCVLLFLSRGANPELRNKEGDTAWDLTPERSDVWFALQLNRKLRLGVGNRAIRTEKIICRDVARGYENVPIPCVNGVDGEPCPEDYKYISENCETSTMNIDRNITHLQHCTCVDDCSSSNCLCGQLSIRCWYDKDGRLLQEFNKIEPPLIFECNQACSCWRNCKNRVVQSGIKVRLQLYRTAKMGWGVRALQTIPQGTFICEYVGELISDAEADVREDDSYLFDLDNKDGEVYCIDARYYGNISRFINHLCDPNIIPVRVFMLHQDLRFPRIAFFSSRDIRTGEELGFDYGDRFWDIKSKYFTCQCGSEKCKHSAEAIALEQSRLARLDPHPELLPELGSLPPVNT
The experiment in a line: G9a inhibitory activity test (ALPHA). Format: biochemical. The protocol:
The G9a inhibitory activity of each compound was evaluated by measuring the enzymatic activity of G9a by amplified luminescence proximity homogeneous assay (ALPHA). First, 7.5 μL of a dilution of recombinant human G9a protein (BPS Bioscience Inc., #51001) diluted to 0.05 to 0.1 nM with a Tris buffer solution (50 mM Tris-HCl [pH 9.0], 50 mM NaCl, 0.01% Tween-20, 1 mM DTT), and 0.5 μL of the test compound were added to each well of a 384-well microplate (AlphaPlate-384 Shallow Well, PerkinElmer, Inc., #6008359), mixed by vortex, and incubated at room temperature for 10 minutes. 500 nM biotinylated histone H3 peptide (1-21) (AnaSpec Inc., #61702) and 150 μM SAM (Sigma-Aldrich Co. LLC, #A7007) were mixed at 1:1 in advance, and 2 μL of the mixture was added to each well, mixed by vortex, and then incubated at room temperature for 1 hour. AlphaLISA anti-H3K9me2 acceptor beads (PerkinElmer, Inc., #AL117C) and AlphaScreen streptavidin donor beads (PerkinElmer, Inc., #6760002B) were each diluted with an epigenetic buffer (PerkinElmer, Inc., AlphaLISA Epigenetics Buffer Kit #AL008C) to a final concentration of […] after addition. These dilutions were added to the reaction solution in the dark and incubated at room temperature for 1 hour in the dark. Then, measurement was performed using the EnSpire Alpha plate reader (PerkinElmer, Inc., Waltham, Mass., USA). The G9a inhibitory activity of the test compound was calculated as a compound concentration necessary for suppressing G9a enzymatic activity by 50% (IC50 value), by determining the percent inhibition of the compound when the value of a control without the addition of the compound was defined as 0% and the value of a control without the addition of the enzyme was defined as 100%.

The mark [1] stands for this setting: read-out: Inhibitory activity (G9a IC50).
The mark [2] stands for this setting: biotinylated histone H3 peptide (1-21), SAM, read-out: Inhibitory activity (G9a IC50 value).

With `Cc1c(C(=O)NC(CCC2CC2)c2nc3ccc(CN(C)C)cc3n2C)[nH]c2c1C(=O)CC(C)(C)C2` (stereo not drawn) [Example 31-2], the IC50 (usually the concentration that gives 50% inhibition) under setting [1] is at least 200 nM. Regarding `COc1ccc(NC(=O)C(CCC2CC2)NC(=O)c2cccc(CCCN(C)C)c2)cn1` (stereo not drawn) [Example 6-75], the IC50 under setting [1] is at least 200 nM. The same measure, in the same setting: under `CCCCC(NC(=O)c1[nH]c2c(c1C)C(=O)CC(C)(C)C2)C(=O)Nc1cccnc1CC` (stereo not drawn) [Example 6-23] stands at least 200 nM. On the same count and under the same terms, under `CCCCC(NC(=O)c1[nH]c2c(c1C)C(=O)CC(C)(C)C2)C(=O)NCc1ccc(CN2CCC2)cc1` (stereo not drawn) [Example 18-14] stands below 50 nM; under `CCc1c(C(=O)N[C@@H](CCC2CC2)C(=O)Nc2ccc(C#N)cc2)[nH]c2c1C(=O)CC(C)(C)C2` [Example 15-3], 50 to 200 nM. Turning to `Cc1c(C(=O)NC(CCC2CC2)C(=O)N2CCc3cc(C#N)ccc32)[nH]c2c1C(=O)CC(C)(C)C2` (stereo not drawn) [Example 1-64], under setting [2], the half-maximal inhibitory concentration (IC50) was at least 200 nM. On to `CCCCC(NC(=O)c1[nH]c2c(c1C)C(=O)CC(C)(C)C2)C(=O)NCc1ccc(C(=O)N(C)C)cc1` (stereo not drawn) [Example 20-2], for which the 50% inhibitory concentration (IC50) under setting [1] was at least 200 nM.

As to `CCCCC(NC(=O)c1[nH]c2c(c1C)C(=O)CC(C)(C)C2)C(=O)Nc1ccccc1C(F)F` (stereo not drawn) [Example 5-1, N-[1-[2-(difluoromethyl)anilino]-1-oxohexan-2-yl]-3,6,6-trimethyl-4-oxo-5,7-dihydro-1H-indole-2-carboxamide], the IC50 under setting [1] is at least 200 nM. The same measure, in the same setting: with `COC(=O)c1ccc2c(c1)nc(C(CCC1CC1)NC(=O)c1[nH]c3c(c1C)C(=O)CC(C)(C)C3)n2C` (stereo not drawn) [Example 30-3] the figure was at least 200 nM; with `CCCCC(NC(=O)c1[nH]c2c(c1C)C(=O)CC(C)(C)C2)C(=O)Nc1ccc(C(N)=O)cc1` (stereo not drawn) [Example 20-1, N-[1-(4-carbamoylanilino)-1-oxohexan-2-yl]-3,6,6-trimethyl-4-oxo-5,7-dihydro-1H-indole-2-carboxamide], at least 200 nM. With `CCCCC(NC(=O)c1[nH]c2c(c1C)C(=O)CC(C)(C)C2)C(=O)Nc1cccc2c1CCC2` (stereo not drawn) [Example 1-34], the concentration for half-maximal inhibition (IC50) under setting [2] was at least 200 nM. Regarding `CCCCC(NC(=O)Cc1ccc(Cl)cc1)C(=O)Nc1ccc(OC2CCN(C)CC2)nc1` (stereo not drawn) [Example 11-9], the concentration for half-maximal inhibition (IC50) under setting [1] is at least 200 nM. `CCCC[C@@H](NC(=O)c1[nH]c2c(c1C)C(=O)CC(C)(C)C2)C(=O)Nc1ccc(OC2CNC2)nc1` [Example 26-3]: the half-inhibitory concentration (IC50) under setting [1] lay within 50 to 200 nM. Consider `CCCCC(NC(=O)c1[nH]c2c(c1C)C(=O)CC(C)(C)C2)C(=O)N[C@@H]1CCc2ccccc21` (stereo partly drawn) [Example 1-111], for which, under setting [1], the half-maximal inhibitory concentration (IC50) was in the range of 50 to 200 nM. Turning to `CCCCC(NC(=O)c1[nH]c2c(c1C)C(=O)CC(C)(C)C2)C(=O)Nc1ccc(N)cc1` (stereo not drawn) [Example 21, N-[1-(4-aminoanilino)-1-oxohexan-2-yl]-3,6,6-trimethyl-4-oxo-5,7-dihydro-1H-indole-2-carboxamide], the IC50 under setting [1] is at least 200 nM.

For `CCCC[C@H](NC(=O)c1[nH]c2c(c1C)C(=O)CC(C)(C)C2)c1nc2ccc(OCCCN(C)C)cc2[nH]1` [Example 34-1, (S)-N-(1-(6-(3-(dimethylamino)propyloxy)-1H-benzo[d]imidazol-2-yl)pentyl)-3,6,6-trimethyl-4-oxo-4,5,6,7-tetrahydro-1H-indole-2-carboxamide], the half-inhibitory concentration (IC50) under setting [1] was at least 200 nM.

Consider `CCCCC(NC(=O)c1[nH]c2c(c1C)C(=O)CC(C)(C)C2)C(=O)NCc1ccc(CN2CCC(C)(C)CC2)cc1` (stereo not drawn) [Example 18-13], for which, under setting [1], the IC50 was below 50 nM. Same read-out and setting: with `Cc1c(C(=O)NC(CCC2CC2)C(=O)NCc2ccc(CN(C)C)cc2)[nH]c2c1C(=O)CC(C)(C)C2` (stereo not drawn) [Example 1-149] the figure was below 50 nM; with `Cc1c(C(=O)NC(CCC2CC2)C(=O)Nc2ccccn2)[nH]c2c1C(=O)CC(C)(C)C2` (stereo not drawn) [Example 6-9], at least 200 nM. Still for that read-out and setting: under `Cc1c(C(=O)NC(CCC2CC2)C(=O)N2CCc3c(CN4CCCC4)cccc32)[nH]c2c1C(=O)CC(C)(C)C2` (stereo not drawn) [Example 1-126] stands below 50 nM; under `CCc1ncccc1NC(=O)C(CCC1CC1)NC(=O)c1[nH]c2c(c1C)C(=O)CC(C)(C)C2` (stereo not drawn) [Example 6-6], 50 to 200 nM; under `CCCC[C@H](NC(=O)c1[nH]c2c(c1CC)C(=O)CC(C)(C)C2)C(=O)Nc1ccccc1` [Example 6-35], 50 to 200 nM. For the compound `Cc1c(C(=O)NC(CCC2CC2)c2nc3c(CN4CCN(C)CC4)cccc3n2C)[nH]c2c1C(=O)CC(C)(C)C2` (stereo not drawn) [Example 31-6], under setting [1], the IC50 is at least 200 nM.

In the case of `CCCCC(NC(=O)c1[nH]c2c(c1C)C(=O)CC(C)(C)C2)C(=O)Nc1cccc(-c2ccccn2)c1` (stereo not drawn) [Example 1-105], under setting [2], the IC50 was at least 200 nM. As for `Cc1cccc2c1CCN2C(=O)C(CCC1CC1)NC(=O)c1[nH]c2c(c1C)C(=O)CC(C)(C)C2` (stereo not drawn) [Example 1-116], the IC50 under setting [1] is at least 200 nM.

`Cc1c(C(=O)N[C@@H](CCC2CC2)C(=O)Nc2ccc(C#N)cc2)[nH]c2c1C(=O)CC(C)(C)C2` [Example 15-1, N-[(2S)-1-(4-cyanoanilino)-4-cyclopropyl-1-oxobutan-2-yl]-3,6,6-trimethyl-4-oxo-5,7-dihydro-1H-indole-2-carboxamide]: under setting [1], the IC50 was below 50 nM. On the same count and under the same terms, with `CCCC[C@H](NC(=O)c1[nH]c2c(c1CC)C(=O)CC(C)(C)C2)C(=O)N[C@@H](C)c1ccccc1` [Example 6-40] the figure was 50 to 200 nM; with `COc1ccc(NC(=O)C(CCC2CC2)NC(=O)c2sc(-c3cccnc3)nc2C(F)(F)F)cn1` (stereo not drawn) [Example 6-60], at least 200 nM; with `CCCCC(NC(=O)c1[nH]c2c(c1C)C(=O)CC(C)(C)C2)C(=O)Nc1ccc(OC2CCNCC2)nc1` (stereo not drawn) [Example 26-4], below 50 nM.

Take `Cc1c(C(=O)NC(CCC2CC2)C(=O)N2CCc3cc(OCCO)ccc32)[nH]c2c1C(=O)CC(C)(C)C2` (stereo not drawn) [Example 1-133]: the concentration for half-maximal inhibition (IC50) under setting [1] was at least 200 nM. For `Cc1c(C(=O)NC(CCC2CC2)c2nc3ccccc3n2C)[nH]c2c1C(=O)CC(C)(C)C2` (stereo not drawn) [Example 30-1, N-[3-cyclopropyl-1-(1-methylbenzoimidazol-2-yl)propyl]-3,6,6-trimethyl-4-oxo-5,7-dihydro-H-indole-2-carboxamide], the concentration for half-maximal inhibition (IC50) under setting [1] is 50 to 200 nM. On the same count and under the same terms, with `CCCCC(NC(=O)c1[nH]c2c(c1C)C(=O)CC(C)(C)C2)C(=O)NCc1ccc(CCCN)cc1` (stereo not drawn) [Example 19, N-[1-[[4-(3-aminopropyl)phenyl]methylamino]-1-oxohexan-2-yl]-3,6,6-trimethyl-4-oxo-5,7-dihydro-1H-indole-2-carboxamide] the figure was below 50 nM. In the case of `CCCCC(NC(=O)c1[nH]c2c(c1C)C(=O)CC(C)(C)C2)C(=O)NCc1cccc(OC)c1` (stereo not drawn) [Example 1-45], under setting [2], the IC50 was at least 200 nM. Turning to `COc1ccc(NC(=O)C(CCC2CC2)NC(=O)c2ccc(Nc3ccncc3)cc2OC)cn1` (stereo not drawn) [Example 6-79], the IC50 under setting [1] was below 50 nM. For `CCCCC(NC(=O)c1[nH]c2c(c1C)C(=O)CC(C)(C)C2)C(=O)Nc1ccc(C)cc1` (stereo not drawn) [Example 1-21], the IC50 under setting [2] is at least 200 nM. On the same count and under the same terms, with `CCCCC(NC(=O)c1[nH]c2c(c1C)C(=O)CC(C)(C)C2)C(=O)NCc1ccc(Cl)cc1` (stereo not drawn) [Example 1-43] the figure was at least 200 nM; with `CCCCC(NC(=O)c1[nH]c2c(c1C)C(=O)CC(C)(C)C2)C(=O)NCc1ccccc1` (stereo not drawn) [Example 1-39], at least 200 nM.

Consider `CCCCC(NC(=O)c1[nH]c2c(c1C)C(=O)CC(C)(C)C2)C(=O)Nc1ccc2[nH]ccc2c1` (stereo not drawn) [Example 1-96], for which the IC50 under setting [2] was at least 200 nM. For the compound `COc1ccc(NC(=O)C(CCC2CC2)NC(=O)c2ccc(Nc3ccncc3)c(C)c2)cn1` (stereo not drawn) [Example 6-57], the half-maximal inhibitory concentration (IC50) under setting [1] is below 50 nM. Still for that read-out and setting: under `Cc1c(C(=O)NC(CCC2CC2)C(=O)N2CCc3ccc(O)cc32)[nH]c2c1C(=O)CC(C)(C)C2` (stereo not drawn) [Example 1-136] stands at least 200 nM. As for `Cc1c(C(=O)NC(CCC2CC2)C(=O)Nc2ccncc2)[nH]c2c1C(=O)CC(C)(C)C2` (stereo not drawn) [Example 1-73], the 50% inhibitory concentration (IC50) under setting [2] was at least 200 nM. Same read-out and setting: under `O=C(NC(CCC1CC1)C(=O)Nc1ccc(OC2COC2)nc1)c1ccc(Nc2ccncc2)cc1` (stereo not drawn) [Example 1-88] stands below 50 nM. On to `COc1ccc(NC(=O)C(CCC2CC2)NC(=O)c2ccc(Nc3ccncc3C)cc2)cn1` (stereo not drawn) [Example 6-65], for which the half-inhibitory concentration (IC50) under setting [1] is below 50 nM. On to `CCCCC(NC(=O)c1[nH]c2c(c1C)C(=O)CC(C)(C)C2)C(=O)Nc1ccc(N(C)C2CCN(C)CC2)nc1` (stereo not drawn) [Example 1-20], for which the IC50 under setting [2] was below 50 nM. `CCc1nc(C)ccc1NC(=O)C(CCC1CC1)NC(=O)c1[nH]c2c(c1C)C(=O)CC(C)(C)C2` (stereo not drawn) [Example 1-75]: the half-inhibitory concentration (IC50) under setting [2] is at least 200 nM.

Source of the values: patent US20230127046A1, “G9a INHIBITOR” (RIKEN, priority 2019, published 2023).
